Data set [1] concerns S. cerevisiae strain FS09229. In words: Growth of non-evolved strain FS09229 in the presence of extraction solvent (CO2 production). It is filed as cell-based. The conditions noted are these: 100 ml solvent from start, 800 rpm. The procedure:
The non-evolved FS09229 strain described in previous examples was grown in the presence of nonyl-acetate. A 1 ml aliquot of a glycerol stock that was made from an exponentional growing FS09229 strain was used to inoculate a fermentor, containing a similar medium as described in the previous example, but now containing 100 g/l glucose and 100 ml of nonyl-acetate from the beginning of the fermentation. The stirrer speed was instantly set at 800 rpm. Upon inoculation of the fermentor, a long lag-phase of approximately 70 hrs set-in, during which an apparent adaptation to the solvent took place. Consumption of glucose only then commenced, indicated by a slow increase in CO2 signal, a decrease in dissolved oxygen and addition of base. Indeed the cells continued to grow exponentially with concomitant production of CO2, and consumed the glucose within less than 25 hours. […] The final biomass concentration was 15.5 g/l. The cultivation will be referred to as FS09229-solvent. As a control-experiment said strain was grown in the similar medium without the addition of nonyl-acetate. Upon inoculation of the fermentor, consumption of glucose commenced already after approximately 10 hours, indicated by an increase in CO2 signal, a decrease in dissolved oxygen and addition of base. […]

The conditions of data set [2]: partition coefficient between water and octanol; cited from earlier work.
Data set [3] has as its system S. cerevisiae strain PALCPR. In words: Growth of evolved PALCPR strains in the presence of extraction solvent (CO2 production). The format is cell-based. The conditions noted are these: PALCPR-evolved-III from glycerol stock; 100 ml solvent from start, 800 rpm. The procedure:
The cells of the PALCPR-solvent culture described in the previous example were taken as starting point because the presence of the solvent mixture would possibly have already evoked adaptation of cells to solvents. For that, cells of the culture described in the previous example were harvested during mid-exponential-phase and stored at −80° C. in 15% glycerol and subsequently a fermentor, containing the same medium as described in the previous example with 10 g/l glucose and 100 g/l galactose, was then inoculated with cells of said PALCPR-solvent culture. The cells were allowed to fully consume the glucose at a stirring speed of 1000 rpm with an average dissolved oxygen content of above 70% of saturated air. At the onset of galactose consumption, the stirring rate was turned down to 300 rpm, after which slowly 100 ml of octylacetate was added.
Galactose consumption indeed commenced again. A small arrest in CO2 production again occurred after 20 hours which, however, recovered after 5 hours, after which the cells grew exponentially with concomitant production of CO2, consumption of galactose within less than 40 hours. Based upon the CO2 production the specific growth rate was estimated to be 0.062 1/h (FIG. 2). The final biomass concentration was 21.6 g/l.
In order to further improve said strain in terms of length of lag-phase and growth rate, a 25 ml aliquot of the exponentional growing PALCPR-evolved-I strain was used to inoculate a fermentor, containing a similar medium as described in the previous example. However, the medium now only contained 100 g/l galactose and did contain 100 ml of octylacetate from the beginning of the fermentation. In addition, the stirrer speed was instantly set at 800 rpm. Upon inoculation of the fermentor, consumption of galactose only commenced after approximately 40 hours, indicated by a slow increase in CO2 signal, a decrease in dissolved oxygen and addition of base. Indeed the cells continued to grow exponentially with concomitant production of CO2, and consumed the galactose within less than 90 hours. Based upon the CO2 production the specific growth rate was estimated to be 0.041 1/h (FIG. 3). The final biomass concentration was 21.5 g/l. The strain is referred to as PALCPR-evolved-II.
Therefore, to further improve said strain in terms of both length of lag-phase and growth rate, a 50 ml aliquot of the exponentional growing PALCPR-evolved-II strain was used to inoculate a fermentor, containing a similar medium as described in the previous example (thus containing 100 g/l galactose 100 ml of octylacetate from the beginning of the fermentation). The stirrer speed was instantly set at 800 rpm. Upon inoculation of the fermentor, consumption of galactose already commenced after less then 20 hours, indicated by a slow increase in CO2 signal, a decrease in dissolved oxygen and addition of base. Indeed the cells further grew exponentially with concomitant production of CO2, and now consumed the galactose within approximately 50 hours. Based upon the CO2 production the specific growth rate was estimated to be 0.091 1/h (FIG. 4). The final biomass concentration was 18.9 g/l. The strain is referred to as PALCPR-evolved-III.
The evolved PALCPR-evolved-III strain described in the previous example was grown in the presence of nonyl-acetate, a similar solvent as octylacetate with one additional carbon atom. A 1 ml aliquot of a glycerol stock that was made from an exponentional growing PALCPR-evolved-III strain was used to inoculate a fermentor, containing a similar medium as described in the previous example, containing only 100 g/l galactose and 100 ml of nonyl-acetate from the beginning of the fermentation. The stirrer speed was instantly set at 800 rpm. Upon inoculation of the fermentor, consumption of galactose only commenced after approximately 70 hours, indicated by a slow increase in CO2 signal, a decrease in dissolved oxygen and addition of base. […]

SMILES strings stand for the structures.

As usually defined, the logP is a log measure of how a compound divides between an organic and an aqueous phase. Turning to `CCCCCCCCCOC(C)=O` [nonyl-acetate], the lag-phase result in data set [1] is recorded as “approximately 70 hrs”. For the same compound, the specific growth rate in data set [1] (100 g/l glucose) was 0.176 h⁻¹. Moreover, the logP in data set [2] is 4.2. Further, in data set [3], the “lag-phase until galactose consumption commenced” value is “approximately 70 hours” and the specific growth rate was 0.098 h⁻¹.

The values above are taken from US8518677B2, “Microbial bioreaction process” (Evolva Sa, priority 2007, dated 2013).
